{
  "source": "paper PMC10568492",
  "about": "(Journal of medicinal chemistry, 2023)",
  "key": {"Oral exposure in mice": {"test": "Oral exposure in mice", "type": "in vivo, mouse", "conditions": "for Plasma drug concentration (mean ± SD): mice, 10 mg/kg oral gavage"}, "AR-LBD protein": {"molecular_target": "T1, AR-LBD protein (Rattus norvegicus, UniProt P15207)", "T1 sequence (P15207 651-882 limits assumed)": "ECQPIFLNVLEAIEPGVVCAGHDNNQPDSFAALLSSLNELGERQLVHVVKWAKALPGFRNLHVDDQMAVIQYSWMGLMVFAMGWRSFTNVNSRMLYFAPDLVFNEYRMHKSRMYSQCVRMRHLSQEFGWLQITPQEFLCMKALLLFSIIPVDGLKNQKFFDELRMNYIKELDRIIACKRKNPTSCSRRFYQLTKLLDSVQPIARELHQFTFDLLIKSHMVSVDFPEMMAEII", "test": "AR fluorescence-polarization", "type": "binding"}, "AR protein [1]": {"molecular_target": "T2, AR protein (Homo sapiens, UniProt P10275)", "T2 sequence (P10275 1-920)": "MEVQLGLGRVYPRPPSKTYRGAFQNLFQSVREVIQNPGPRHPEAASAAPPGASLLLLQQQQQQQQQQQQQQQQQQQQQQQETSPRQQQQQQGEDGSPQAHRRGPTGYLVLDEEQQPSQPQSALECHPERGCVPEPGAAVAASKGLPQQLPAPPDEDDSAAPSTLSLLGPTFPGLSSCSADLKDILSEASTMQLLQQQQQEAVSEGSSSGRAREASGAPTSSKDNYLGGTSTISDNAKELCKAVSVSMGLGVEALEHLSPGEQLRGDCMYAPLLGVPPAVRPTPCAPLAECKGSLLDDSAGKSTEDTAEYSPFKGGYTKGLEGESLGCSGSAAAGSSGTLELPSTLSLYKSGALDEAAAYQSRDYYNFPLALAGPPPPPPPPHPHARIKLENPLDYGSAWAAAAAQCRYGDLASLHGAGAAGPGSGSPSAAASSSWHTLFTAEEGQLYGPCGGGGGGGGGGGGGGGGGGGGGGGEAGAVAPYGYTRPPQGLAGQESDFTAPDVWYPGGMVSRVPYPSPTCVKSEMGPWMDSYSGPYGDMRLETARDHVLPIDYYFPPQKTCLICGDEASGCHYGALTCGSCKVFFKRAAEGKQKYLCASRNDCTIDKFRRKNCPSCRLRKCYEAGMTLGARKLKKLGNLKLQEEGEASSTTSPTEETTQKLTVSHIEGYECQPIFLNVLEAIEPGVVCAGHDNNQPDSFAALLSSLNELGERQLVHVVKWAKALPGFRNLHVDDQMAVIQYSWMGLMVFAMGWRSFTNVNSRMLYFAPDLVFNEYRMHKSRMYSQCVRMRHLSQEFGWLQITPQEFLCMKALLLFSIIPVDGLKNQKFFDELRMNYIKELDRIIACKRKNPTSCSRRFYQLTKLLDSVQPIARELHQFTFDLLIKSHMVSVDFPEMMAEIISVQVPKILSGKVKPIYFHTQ", "test": "Multiplexed quantitative proteomics analysis in VCaP cells", "type": "cell-based", "conditions": "10 μM, 24 h"}, "PK study in dog": {"test": "PK study in dog", "type": "in vivo", "conditions": "male, beagle, plasma, po, 1 mg/kg"}, "AR protein [2]": {"molecular_target": "T2, AR protein", "test": "AR protein degradation in VCaP cells, Western blotting", "type": "cell-based", "conditions": "VCaP and LNCaP cell lines"}, "PK study in mouse": {"test": "PK study in mouse", "type": "in vivo", "conditions": "male, ICR, plasma, po, 5 mg/kg"}, "KLK3 (PSA) gene": {"system": "KLK3 (PSA) gene", "test": "Suppression of KLK3", "type": "cell-based, human"}, "VCaP xenograft tumor": {"system": "VCaP xenograft tumor", "test": "Antitumor activity in VCaP xenograft tumor model in SCID mice", "type": "in vivo, mouse", "conditions": "all doses tested (3.75-25 mg/kg), entire experiment"}, "PK study in rat": {"test": "PK study in rat", "type": "in vivo", "conditions": "male, Sprague-Dawley, plasma, po, 10 mg/kg"}, "[3]": {"conditions": "male, SCID, mouse, plasma, po, 10 mg/kg"}},
  "note": "Marks after values point to notes of the source that are not given here.",
  "data": [
    {"compound": "N#Cc1ccc(N2CCC3(CCN(c4ccc(C(=O)N5CCCN(C6CCN(c7ccc8c(c7)C(=O)N(C7CCC(=O)NC7=O)C8=O)CC6)CC5)cc4)CC3)C2)cc1Cl", "note": "(stereo not drawn) [Compound 21, 2-chloro-4-(8-(4-(4-(1-(2-(2,6-dioxopiperidin-3-yl)-1,3-dioxoisoindolin-5-yl)piperidin-4-yl)-1,4-diazepane-1-carbonyl)phenyl)-2,8-diazaspiro[4.5]decan-2-yl)benzonitrile]", "values": [
      {"measurement": "concentration at 1 h", "setting": "Oral exposure in mice; [3]", "value": "46 ± 16", "unit": "ng/mL"},
      {"measurement": "concentration at 3 h", "setting": "Oral exposure in mice; [3]", "value": "8 ± 1", "unit": "ng/mL"},
      {"measurement": "concentration at 6 h", "setting": "Oral exposure in mice; [3]", "value": "11 ± 3", "unit": "ng/mL"}
    ]},
    {"compound": "N#Cc1ccc(N2CCC3(CCN(c4ccccc4)CC3)C2)cc1Cl", "note": "[Compound 15a]", "values": [
      {"measurement": "IC50", "setting": "AR-LBD protein", "value": "> 1000", "unit": "nM"}
    ]},
    {"compound": "C[C@H]1CC2(CCN(c3ccc(C(=O)N4CCN(C)CC4)cc3)CC2)CN1c1ccc(C#N)c(Cl)c1", "note": "[ARi-12, (S)-2-chloro-4-(3-methyl-8-(4-(4-methylpiperazine-1-carbonyl)phenyl)-2,8-diazaspiro[4.5]decan-2-yl)benzonitrile]", "values": [
      {"measurement": "effect on protein levels (proteomics)", "setting": "AR protein [1]", "value": "did not significantly alter the levels of any proteins analyzed"}
    ]},
    {"compound": "N#Cc1ccc(N2CCC3(CCN(c4ccc(C(=O)N5CCN(C6CN(c7ccc8c(c7)C(=O)N(C7CCC(=O)NC7=O)C8=O)C6)CC5)cc4)CC3)C2)cc1Cl", "note": "(stereo not drawn) [Compound 27, 2-chloro-4-(8-(4-(4-(1-(2-(2,6-dioxopiperidin-3-yl)-1,3-dioxoisoindolin-5-yl)azetidin-3-yl)piperazine-1-carbonyl)phenyl)-2,8-diazaspiro[4.5]decan-2-yl)benzonitrile]", "values": [
      {"measurement": "concentration at 1 h", "setting": "Oral exposure in mice; [3]", "value": 501, "unit": "ng/mL"},
      {"measurement": "concentration at 3 h", "setting": "Oral exposure in mice; [3]", "value": 171, "unit": "ng/mL"},
      {"measurement": "concentration at 6 h", "setting": "Oral exposure in mice; [3]", "value": 246, "unit": "ng/mL"},
      {"measurement": "concentration at 24 h", "setting": "Oral exposure in mice; [3]", "value": 44, "unit": "ng/mL"},
      {"measurement": "Plasma drug concentration (mean ± SD)", "setting": "Oral exposure in mice; 1 h, 10 mg/kg", "value": "501 ± 106", "unit": "ng/mL"},
      {"measurement": "Plasma drug concentration (mean ± SD)", "setting": "Oral exposure in mice; 3 h, 10 mg/kg", "value": "171 ± 83", "unit": "ng/mL"},
      {"measurement": "Plasma drug concentration (mean ± SD)", "setting": "Oral exposure in mice; 6 h, 10 mg/kg", "value": "246 ± 27", "unit": "ng/mL"},
      {"measurement": "Plasma drug concentration (mean ± SD)", "setting": "Oral exposure in mice; 24 h, 10 mg/kg", "value": "44 ± 5", "unit": "ng/mL"}
    ]},
    {"compound": "C[C@H]1CC2(CCN(c3ccc(C(=O)N4CCN(C5CN(c6ccc7c(c6)C(=O)N(C6CCC(=O)NC6=O)C7=O)C5)CC4)cc3)CC2)CN1c1ccc(C#N)c(Cl)c1", "note": "(stereo partly drawn) [Compound 30, 2-chloro-4-((3S)-8-(4-(4-(1-(2-(2,6-dioxopiperidin-3-yl)-1,3-dioxoisoindolin-5-yl)azetidin-3-yl)piperazine-1-carbonyl)phenyl)-3-methyl-2,8-diazaspiro[4.5]decan-2-yl)benzonitrile]", "values": [
      {"measurement": "AUC", "setting": "PK study in dog", "value": 1820, "unit": "ng·h/mL"},
      {"measurement": "times more potent than ARV-110 in inducing AR degradation", "setting": "AR protein [2]", "value": "6-9"},
      {"measurement": "AUC(0-t)", "setting": "PK study in mouse", "value": 11700, "unit": "ng·h/mL"},
      {"measurement": "Cmax", "setting": "PK study in mouse", "value": 1480, "unit": "ng/mL"},
      {"measurement": "times more potent than Enzalutamide in suppressing KLK3 gene expression", "setting": "KLK3 (PSA) gene; VCaP and LNCaP cell lines", "value": "at least 30"},
      {"measurement": "suppression of expression of KLK3 gene", "setting": "KLK3 (PSA) gene; VCaP, 1 nM, 24 h", "value": 51, "unit": "%"},
      {"measurement": "signs of toxicity", "setting": "VCaP xenograft tumor", "value": "no signs of toxicity"},
      {"measurement": "AUC(0-t)", "setting": "PK study in rat", "value": 12800, "unit": "ng·h/mL"},
      {"measurement": "Cmax", "setting": "PK study in rat", "value": 1470, "unit": "ng/mL"}
    ]},
    {"compound": "2-chloro-4-(8-(4-(4-(4-(2-(2,6-dioxopiperidin-3-yl)-1,3-dioxoisoindolin-5-yl)piperazin-1-yl)piperidin-1-yl)benzoyl)-2,8-diazaspiro[4.5]decan-2-yl)benzonitrile [Compound 20]", "values": [
      {"measurement": "Plasma drug concentration (mean ± SD)", "setting": "Oral exposure in mice; 1 h", "value": "82^b ng/ml"},
      {"measurement": "Plasma drug concentration (mean ± SD)", "setting": "Oral exposure in mice; 3 h", "value": "57^b ng/ml"},
      {"measurement": "Plasma drug concentration (mean ± SD)", "setting": "Oral exposure in mice; 6 h", "value": "91^b ng/ml"},
      {"measurement": "Plasma drug concentration (mean ± SD)", "setting": "Oral exposure in mice; 24 h", "value": "3^b ng/ml"}
    ]},
    {"compound": "CN1CCN(c2ccc(C(=O)N3CCC4(CC3)CCN(c3ccc(C#N)c(Cl)c3)C4)cc2)CC1", "note": "[Compound 14b]", "values": [
      {"measurement": "times more potent than 14a in AR binding", "setting": "AR-LBD protein; vs 14a", "value": 2}
    ]}
  ]
}
